Test results published in patent US6887468B1 (Board of Regents, The University of Texas System, priority 1999, dated 2005).
Entries after “also recorded” stand apart in the source; their conditions may differ.

Key:
VEGFR2 (KDR/Fc) = assay: Co-precipitation assay, VEGF with VEGFR2/Fc in solution; type: binding; settings: F(ab′)2
Procedure: 200 ng of soluble forms of VEGFR1 (Flt-1/Fc) or VEGFR2 (KDR/Fc, R&D Systems, Minneapolis, Minn.) were added for a total volume of 50 μl and incubated for 2 hrs. The receptor/Fc constructs were precipitated using Protein A-sepbarose beads and the resulting precipitate was washed 4 times with binding buffer.
Reducing sample buffer was added to the pellet and supernatant of each reaction and both were analyzed by 12% SDS-PAGE and transferred to PVDF membranes. […] The soluble receptor/Fc constructs were also detected by using peroxidase-conjugated goat anti-human Fc (Kirkegaard & Perry Laboratories, Inc.)
The receptor/Fc constructs were precipitated by incubation with Protein A sepharose beads. The precipitate was washed and resuspended in reducing sample buffer and separated by 12% SDS-PAGE and transferred to PVDF.

[1] = tested on: human NCI-H358 NSCLC tumors; assay: Localization of 2C3-GUS after i.v. injection into tumor-bearing SCID mice; type: in vivo
[2] = Blood clearance of radioiodinated 2C3-GUS after intravenous injection; type: in vivo, mice; settings: 125I-labelled
Description: 2C3-GUS was radioiodinated with ^125I to a specific activity of 5×10^6 cpm/μg.

NCI-H358 NSCLC = assay: In vivo tumor growth inhibition, newly-implanted NCI-H358 NSCLC; design: species or system nu/nu mice
Procedure: (§1) FIG. 3A and FIG. 3B. […] FIG. 3A: 1×10^7 NCI-H358 NSCLC cells were injected subcutaneously into nu/nu mice on day 0. FIG. 3B: 5×10^6 A673 rhabdomyosarcoma cells were injected subcutaneously into nu/nu mice on day 0. Mice were injected i.p. with the indicated IgG on day 1 and 2 times/week thereafter. […] Tumors were measured 2-3 times per week. Mean and standard error is shown for the duration of the study in FIG. 3A, while data for the last day of the study (day 26) is shown in FIG. 3B.
(§2) Nu/nu mice were injected subcutaneously with either 1×10^7 NCI-H358 NSCLC cells or 5×10^6 A673 rhabdomyosarcoma cells on day 0. […] The tumors were then measured twice per wk for a period of approximately six wk for the NCI-H358 bearing mice and four wk for the A673 bearing mice. Tumor volume was calculated according to the formula: volume=L×W×H, where L=length, W=width, H=height.

VEGFR1 (FLT-1), Flt-1/Fc = assay: ELISA: VEGF binding to VEGFR1-coated wells in presence of antibody; settings: summary table
Procedure: (§3) FIG. 2. […] The plate was then incubated with rabbit anti-VEGF (A-20, Santa Cruz Biotechnology, Inc.) at 1 μg/ml and developed using a peroxidase conjugated goat anti-rabbit antibody. Assays were performed in triplicate. Mean percent binding in the absence of antibody is shown, together with the standard deviation.
(§4) The assay was also performed by coating wells of a microtiter plate with either control or test IgG.

A673 rhabdomyosarcoma = assay: In vivo tumor growth inhibition, newly-implanted A673 rhabdomyosarcoma; design: species or system nu/nu mice
Procedure: as §1, §2

NCI-H358 NSCLC tumors = assay: Treatment of established NCI-H358 NSCLC tumor xenografts; type: in vivo, nu/nu mice
Procedure: FIG. 4. […] Mean tumor volume along with the SEM over 116 days is shown.
(§5) FIG. 5A and FIG. 5B. […] Treatments (T) were 100 μg of the IgG given i.p., except for the initial treatment that consisted of 500 μg of the IgG given i.v. Mean tumor volume along with the SEM is shown. At the end of the study (day 116), the mice were sacrificed and the tumors dissected out and weighed. […] The mice were treated every other day as indicated (T). […] Mean tumor volume along with the SE is shown.
(§6) Male nu/nu mice bearing subcutaneous NCI-H358 tumors or HT1080 fibrosarcoma 200-400 mm^3 in size were injected i.p. with test or control antibodies. The NCI-H358 bearing mice were treated with 100 μg of antibodies per injection three times a week during the first week and twice a week during the second and third week. The mice were then switched to 50 μg per injection every five days. The HT1080 bearing mice were treated with 100 μg of the indicated antibody or saline every other day throughout the duration of the study. In both studies, mice were sacrificed when their tumors reached 2500 mm^3 in size or earlier if tumors began to ulcerate.
Doses were 50-100 μg every 3-5 days. […] In addition to measuring mean tumor volume (FIG. 4), photographs of the mice from each treatment group were also taken to show the differences in tumor size and appearance at the end of the study.

[3] = target: T1, denatured VEGF121 and VEGF165 (Homo sapiens, UniProt P15692); assay: Western blot analysis of anti-VEGF antibodies; type: binding; settings: reducing and non-reducing conditions
T1 sequence (P15692 27-191 isoform P15692-4): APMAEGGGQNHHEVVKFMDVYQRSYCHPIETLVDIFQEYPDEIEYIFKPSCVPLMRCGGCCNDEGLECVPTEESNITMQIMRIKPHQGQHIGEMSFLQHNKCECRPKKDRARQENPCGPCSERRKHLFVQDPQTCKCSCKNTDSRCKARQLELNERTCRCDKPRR
Procedure: The nitrocellulose membrane was blocked using Sea-Block PP82-41 (East Coast Biologics, Berwick, Me.), and probed with primary antibodies using a mini-blotter apparatus (Immunetics, Cambridge, Mass.). The membranes were developed after incubation with the appropriate peroxidase-conjugated secondary antibody by ECL enhanced chemiluminescence.
Western blot analyses of anti-VEGF antibodies were conducted by separating VEGF165 in the presence of 5% FCS using SDS-PAGE on a 12% gel and analyzing by a standard western blotting protocol using ECL detection. The primary antibodies were incubated with the nitrocellulose membrane using a multi-lane mini-blotter apparatus.

[4] = target: T2, VEGF alone or VEGF associated with sFlk-1 (VEGF:Flk-1) (Homo sapiens, UniProt P15692); assay: Indirect and capture ELISA for reactivity with VEGF alone or VEGF associated with sFlk-1; type: binding; settings: VEGF alone or VEGF:Flk-1
T2 sequence (P15692 27-191 isoform P15692-4): T1 sequence (P15692 27-191 isoform P15692-4)
Procedure: The Flk-1/SEAP protein was produced and purified as described by Tessler etal. (1994). Basically, the extracellular domain of Flk-1 (sFlk-1) was produced in Spodoptera frugiperda (Sf9) cells and purified by immunoaffinity techniques utilizing a monoclonal anti-Flk-1 antibody (1A8). sFlk-1 was then biotinylated and bound on avidin-coated plates.
The reactivity was determined as described above for the initial screening.
A capture ELISA was also developed. In the capture ELISA, microtiter plates were coated overnight at 4° C. with 100 ng of the indicated antibody. […] Streptavidin conjugated to peroxidase (Kirkegaard & Perry Laboratories, Inc.), diluted 1:2000, was used as a second layer and developed.

VEGFR2 = assay: VEGF-induced phosphorylation of VEGFR2 in PAE/KDR cells (immunoprecipitation, western blot); type: cell-based, porcine aortic endothelial cells transfected with VEGFR2; settings: antibody 100 nM
Procedure: PAE/KDR, PAE/FLT, and bEND.3 cells were grown to 80-90% confluency in 100 mm tissue dishes in media containing 5% serum. The cells were then serum starved for 24 hours in media containing 0.1% serum. After pretreatment with 100 […] in PBS for 30 min, the cells were incubated with 5 nM (200 ng/ml) VEGF165, 5 nM (100 ng/ml) bFGF (R&D Systems, Minneapolis, Minn.), or A673 tumor conditioned media in the presence or absence of control or test antibodies for additional 15 min.
The cells were then washed with ice-cold PBS containing 10 mM EDTA, 2 mM sodium fluoride, and 2 mM sodium orthovanadate and lysed in lysis buffer (50 mM Tris, 150 mM NaCl, 1% Nonidet P40, 0.25% sodium deoxycholate, 0.1% CHAPS, 5 mM EDTA, 1.5 mM MgCl2, 2 mM sodium fluoride, 2 mM sodium orthovanadate, 10% glycerol and protease inhibitors (Complete Protease Inhibitor Cocktail tablets, Boehringer Mannheim)). The lysates were clarified by centrifugation and resulting supematant used for immunoprecipitation.
The reactions using the chicken anti-FLT-1 antibody were subsequently incubated with a bridging goat anti-chicken antibody (Kirkegaard and Perry Laboratories, Inc.) for 1 h at 4° C. […]

KDR = assay: 125I-VEGF binding studies on KDR expressing endothelial cells (ABAE cells); design: species or system bovine
mouse VEGF = target: T3, mouse VEGF (Mus musculus, UniProt Q00731); assay: Indirect ELISA with mouse VEGF; type: binding
T3 sequence (Q00731 27-190 isoform Q00731-2): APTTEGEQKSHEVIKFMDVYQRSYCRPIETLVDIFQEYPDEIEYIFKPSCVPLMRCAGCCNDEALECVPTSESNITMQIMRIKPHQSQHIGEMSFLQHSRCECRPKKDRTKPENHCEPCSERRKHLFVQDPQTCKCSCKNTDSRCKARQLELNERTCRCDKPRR

HT1080 fibrosarcoma = assay: Treatment of established HT1080 fibrosarcoma xenografts; type: in vivo, nu/nu mice; settings: 100 μg every two days
Procedure: as §5, §6

[5] = tested on: VEGFR2 (KDR/Flk-1), sFlk-1-biotin; assay: ELISA: VEGF binding to VEGFR2-coated wells in presence of antibody; design: species or system mouse
Procedure: as §3, §4

[6] = tested on: NCI-H358 NSCLC and HT29 colon adenocarcinoma xenografts and normal organs; assay: In vivo localization in mice bearing human tumor xenografts (immunohistochemistry 24 h after i.v. injection); design: species or system mouse
Procedure: Tumors were grown subcutaneously in immunocompromised mice (NCI-H358 NSCLC in nu/nu mice and HT29 colon adenocarcinoma in SCID mice) until the tumor volume was approximately 1 cm^3. 100 μg of unlabeled antibody for studies using SCID mice, or 100 μg of biotinylated antibody for studies using nude mice, was injected intravenously via a tail vein. Twenty four hours later, the mice were anesthetized, perfused with PBS, and tumor and organs including heart, lungs, liver, kidneys, intestines and spleen were collected and snap frozen in liquid nitrogen.
The tumor and organs from each mouse were sectioned on a cryostat and stained for antibody immunohistochemically as above, with the exception that sections from the nude mice were developed using peroxidase labeled streptavidin-biotin complex (Dako, Carpinteria, Calif.) and the sections from the SCID mice were developed using two peroxidase-conjugated secondary antibodies, a goat anti-mouse IgG+IgM followed by a rabbit anti-goat IgG.
100 μg of GV39M and 3E7 or isotype-matched control IgG were injected into SCID mice bearing HT29 human colonic adenocarcinomas. Twenty-four hours later, the mice were sacrificed, exsanguinated and the tumors and tissues were removed.

[7] = tested on: VEGF-mediated growth of ABAE cells; assay: Endothelial cell growth assay (MTS), VEGF-mediated growth of ABAE cells; type: cell-based, bovine; settings: summary table
Procedure: ABAE cells were grown in the presence of the various indicated antibodies and 0.5 nM VEGF. Growth after 4 days was determined colorimetrically by the enzymatic conversion of MTS (Owen's reagent) to a yellow formazan. […] Background was determined by growing cells without VEGF or antibody and was subtracted from the control and sample wells.
Adult bovine aortic endothelial (ABAE) cells were plated into 96-well tissue culture plates at 1500 cells/well and grown in the presence of 0.5 nM human VEGF with the addition of the various sample and control antibodies. Control wells received media with or without VEGF.
After 4 days of incubation, the cells were quantified by an MTS (3-(4,5-dimethylthiazol-2-yl)-5-(3-carboxylmethoxyphenyl)-2-(4-sulfophenyl)-2H-tetrazolium, inner salt) conversion assay, where MTS conversion to a formazan is proportional to cell number and can be followed by absorbance at 490 nm (Cell Titer 96 AQueous One Solution Cell Proliferation Assay, Promega, Madison, Wis.). The assay was performed according to the manufacturer's instructions.
Cell growth was estimated by subtracting the MTS conversion in cultures to which VEGF was not added. Results were expressed as a percentage of the MTS conversion in control cultures to which only VEGF was added (Buttke et al., 1993).

[8] = tested on: progressive disease in cancer patients; settings: clinical trials; cited from earlier work
[9] = dose-related; cited from earlier work
[10] = 100 μg i.p. 2 times per wk from day 1, controls approximately 1000 mm^3

For 2C3 F(ab′)2: F(ab′)2 fragment of 2C3, the “Blocking of VEGF binding to VEGFR2/Fc in solution” value (VEGFR2 (KDR/Fc)) was “blocked the binding of VEGF to VEGFR2/Fc”.
With 2C3-GUS the “Localization after i.v. injection” value ([1]; immunohistochemistry on frozen tumor sections) was “specifically localized to tumor vasculature and surrounding tumor stroma”, the “Staining of normal tissues” value ([1]; mouse, in vivo) was “Normal tissues were unstained” and the “t½ α” value [2] was “about 6 hours”. For the same compound, the “t½ β” value [2] was “about 25 hours”.
With “2C3: anti-VEGF monoclonal IgG2a,k from hybridoma ATCC PTA 1595; blocks VEGF binding to VEGFR2 but not VEGFR1” the “Tumor growth retardation in NCI-H358 tumor model, lower dose” value (NCI-H358 NSCLC; 10 μg twice per wk) was “less marked”, the Final tumor volume (NCI-H358 NSCLC; [10]) was “approximately 150 mm^3” and the “Blocks VEGF from binding to VEGFR1” value (VEGFR1 (FLT-1), Flt-1/Fc) was “No”. For the same compound, the Final tumor volume (A673 rhabdomyosarcoma; [10]) was “approximately 150 mm^3”, the “Effect on growth of A673 tumors, lower doses” value (A673 rhabdomyosarcoma; 10 or 1 μg twice per wk) was “did slow the growth of A673 tumors” and the “Mean tumor weight at end of study (day 116)” value (NCI-H358 NSCLC tumors; 100 μg i.p., initial treatment 500 μg i.v.) was 0.054 g. For the same compound, the “Mean tumor volume after approximately 14 wk of treatment” value (NCI-H358 NSCLC tumors; 100 μg, start 480 mm^3 (2C3), 428 mm^3 (3E7)) was 84 mm^3, the “Mean tumor volume at the end of the study as % of initial mean tumor volume” value (NCI-H358 NSCLC tumors; 50-100 μg i.p. every 3-5 days, approximately 10 weeks) was 30% and the “Decrease in mean tumor volume” value (NCI-H358 NSCLC tumors; approximately 14 wk of treatment, 100 μg) was “approximately 80%”. The “Regression of established NCI-H358 tumors” value (NCI-H358 NSCLC tumors; mouse, in vivo) was “caused significant tumor regressions; also recorded: slow regression of the tumors”, the “Reactivity with VEGF on western blot” value [3] was “react with denatured VEGF121 and VEGF165 under reducing and non-reducing conditions” and the “Predominant Reactivity” value [4] was “VEGF”. For the same compound, the “Blocking of VEGF-induced phosphorylation of VEGFR2” value (VEGFR2) was “block VEGF-induced phosphorylation of VEGFR2 in PAE/KDR cells”, the “Blocking of 125I-VEGF binding to KDR” value (KDR) was “blocks VEGF from binding to KDR in a concentration dependent manner” and the “Reactivity with mouse VEGF” value (mouse VEGF) was “all the antibodies except 2C3 react with mouse VEGF”. The “Effect on growth of established HT1080 tumors” value (HT1080 fibrosarcoma) was “arrested the growth of the tumors”, the “Reduction in VEGF binding to VEGFR2” value ([5]; 100 fold molar excess over VEGF) was “about 74%” and the “VEGF bound to VEGFR2-coated wells, % of amount bound in absence of antibody” value ([5]; 1000-fold molar excess over VEGF) was ~19%. The “Reduction in VEGF binding to VEGFR2” value ([5]; 1000 fold molar excess over VEGF) was “about 81%”, the “Blocks VEGF from binding to VEGFR2” value ([5]; summary table) was “Yes” and the “Immunohistochemical Reactivity, Tumor” value ([6]; 24 hours after i.v. antibody, 3E7 and GV39M bound tumor vascular endothelium, 2C3 tumor stroma) was 3+. The “In vivo localization in H358 human NSCLC tumor” value ([6]; biotinylated antibody, i.v., nu/nu mice) was “intense staining of connective tissue surrounding the vasculature”, the “In vivo localization in HT29 human tumor model” value ([6]; mouse, in vivo) was “localized strongly to the connective tissue” and the “In vivo normal mouse tissue localization” value ([6]; mouse, in vivo) was “None”. The “Blocks VEGF-induced proliferation” value [7] was “Yes”.
For NC(=O)c1nnn(Cc2cc(Cl)c(C(=O)c3ccc(Cl)cc3)c(Cl)c2)c1N [CAI, carboxyamidotriazole], the “Disease stabilization, share of cancer patients having progressive disease before treatment” value [8] is listed as 49%.
In the case of “recombinant, humanized form of Genentech's anti-VEGF antibody: recombinant, humanized form of Genentech's anti-VEGF antibody evaluated in monkeys (Ryan et al., 1999)”, the “Preclinical safety finding in monkeys” value [9] is given as “physeal dysplasia”.
